Results reported in patent US10391110B2, “Composition for preventing or treating vascular leak syndrome” (INTELLIGENT SYNTHETIC BIOLOGY CENTER, priority 2015, dated 2019).

Tests used:
[1] = system: human umbilical vascular endothelial cells (HUVECs); experiment: tube formation assay in HUVECs; type: cell-based; settings: 25 μM ginsenoside, 4 hours, vs DMSO negative control and VEGF-A positive control
Method: (§1) The angiogenesis-promoting activities between human umbilical vascular endothelial cells (HUVECs) and human retinal microvascular endothelial cells (HRMECs) using 10 kinds of ginsenoside compounds (CK, Rh2, Rg3, Rb1, F2, Rd, Re, Rg1, Rh1, or F1). That is, HUVECs or HRMECs were cultured in an incubator (5% CO2 and 37° C.) using 2% FBS, EGM-2 (Lonza, Walkersville, Md., USA) medium. A 96-well plate was coated with Matrigel (BD Biosciences) for 1 hour. Then, HUVECs or HRMECs (10^4 cells/well, respectively), which were mixed with a 0.1% FBS-containing EBM-2 medium respectively treated with 25 μM of ginsenoside compounds (CK, Rh2, Rg3, Rb1, F2, Rd, Re, Rg1, Rh1, or F1), were seeded on the 96-well plate. After 4 hours of incubation, a tube formation assay was performed and the number of tubes formed was compared by microscopic observation and photographing (FIGS. 1a, 1b, 2a, and 2b). In particular, the cells cultured after treating with DMSO instead of ginsenoside were used as a negative control, and the cells cultured after treating with VEGF-A, which is known to promote angiogenesis, were used as a positive control.
(§2) The HUVECs or HRMECs, which were cultured by the method of Example 1, were cultured after treating at various concentrations (12.5, 25, or 50 μM) of ginsenoside F1 or Rh1 selected from Example 1 for 4 hours, and the number of tubes formed was compared by performing a tube formation assay (FIGS. 3 and 4). In particular, the cells cultured after treating with DMSO instead of ginsenoside were used as a negative control and the cells cultured after treating with VEGF-A, which is known to promote angiogenesis, were used as a positive control.

[2] = system: human retinal microvascular endothelial cells (HRMECs); experiment: tube formation assay in HRMECs; type: cell-based; settings: 25 μM ginsenoside, 4 hours, vs DMSO negative control and VEGF-A positive control
Method: as §1, §2

HUVECs [3] = experiment: MTT cell proliferation assay in HUVECs; type: cell-based, human; settings: 48 hours, concentrations 0, 3.125, 6.25, 12.5, or 25 μM
Method: The HUVECs or HRMECs, which were cultured by the method of Example 1, were cultured after treating at various concentrations (0, 3.125, 6.25, 12.5, or 25 μM) of three kinds of ginsenosides (F1, Rh1, or Rg1), which were confirmed to promote tube formation in Example 1, for 48 hours, and the level of cell proliferation was compared by performing the MTT assay with respect to the cultured cells (FIGS. 5 and 6). In particular, the cells cultured after treating with DMSO instead of ginsenoside were used as a negative control, and the cells cultured after treating with VEGF-A, which is known to promote angiogenesis, were used as a positive control.

HUVECs [4] = experiment: vascular permeability assay, VEGF-A-treated HUVECs; type: cell-based, human; settings: for vascular leakage induced by VEGF-A: HUVECs pretreated with 25 μM ginsenoside for 1 hour, then VEGF-A; for level of vascular leakage, pretreatment plus VEGF-A compared to ginsenoside alone: HUVECs, 25 μM ginsenoside pretreatment 1 hour then VEGF-A vs ginsenoside alone
Method: The HUVECs, cultured by a method described in Example 1, were pretreated with 25 μM ginsenoside F1 or Rh1 for 1 hour selected from Example 1, treated with VEGF-A, and then subjected to a vascular permeability assay (FIG. 9). In particular, the cells cultured after treating with DMSO instead of ginsenoside were used as a negative control; the cells cultured after treating with VEGF-A, which is known to promote angiogenesis, were used as a positive control; and the cells pretreated with ginsenoside F1 or Rh1 and not treated with VEGF-A were used as a comparative group.

ICR mice = experiment: VEGF-A-induced vascular leakage in mouse ears (Evans blue); type: in vivo; settings: ear intradermal 10 μL, ginsenoside 1.25 μM with VEGF-A 250 μg, 30 minutes
Method: Seven-week-old male ICR mice were injected with 1% Evans blue dye (200 μL) into the tail vein and allowed to react for 10 minutes to dye the blood in blue.
Then, the mice were intradermally injected in an amount of 10 μL through the ears with PBS (negative control), VEGF-A (250 μg, positive control), ginsenoside F1 (1.25 μM), ginsenoside Rh1 (1.25 μM), VEGF-A (250 μg)/ginsenoside F1 (1.25 μM), or VEGF-A (250 μg)/ginsenoside Rh1 (1.25 μM), respectively.
Thirty minutes thereafter, the mice were subjected to euthanasia and their ears were removed. After confirming the amount of blood leakage by the naked eye (FIG. 10A), the ears were put in formamide and fixed at 37° C. for 24 hours. Then, the effects of F1 or Rh1 on the inhibition of blood leakage were quantitatively evaluated by measuring the absorbance at 620 nm (FIG. 10B).

Compound	number of tubes formed (tube formation) [1]	number of tubes formed (tube formation) [2]	promotion of cell proliferation (HUVECs [3])	vascular leakage induced by VEGF-A (HUVECs [4])	level of vascular leakage, pretreatment plus VEGF-A compared to ginsenoside alone (HUVECs [4])	vascular leakage symptoms induced by VEGF-A (Evans blue, absorbance at 620 nm) (ICR mice)
CC(C)=CCCC(C)(O)C1CCC2(C)C1C(O)CC1C3(C)CCC(O)C(C)(C)C3C(OC3OC(CO)C(O)C(O)C3O)CC12C [ginsenoside Rh1, 6-O-β-D-glucopyranoside-20(S)-protopanaxatriol]	effect of promoting tube formation at a higher level compared to that of the positive control	effect of promoting tube formation at a higher level compared to that of the positive control	about 100%	vascular leakage was inhibited by the pretreatment	further reduced compared to when the HUVECs were treated with ginsenoside F1 or Rh1 alone	effectively inhibit the vascular leakage symptoms induced by VEGF-A
CC(C)=CCC[C@](C)(O[C@@H]1O[C@H](CO)[C@@H](O)[C@H](O)[C@H]1O)[C@H]1CC[C@]2(C)[C@@H]1[C@H](O)C[C@@H]1[C@@]3(C)CC[C@H](O[C@@H]4O[C@H](CO)[C@@H](O)[C@H](O)[C@H]4O)C(C)(C)[C@@H]3CC[C@]12C [ginsenoside F2]	did not show any noticeable difference	effect of promoting tube formation	–	–	–	–
CC(C)=CCC[C@](C)(O)[C@H]1CC[C@]2(C)[C@@H]1[C@H](O)C[C@@H]1[C@@]3(C)CC[C@H](O[C@@H]4O[C@H](CO)[C@@H](O)[C@H](O)[C@H]4O[C@@H]4O[C@H](CO)[C@@H](O)[C@H](O)[C@H]4O)C(C)(C)[C@@H]3CC[C@]12C [ginsenoside Rg3]	effect of inhibiting tube formation	effect of inhibiting tube formation	–	–	–	–
CC(C)=CCC[C@](C)(O[C@@H]1O[C@H](CO)[C@@H](O)[C@H](O)[C@H]1O)[C@H]1CC[C@]2(C)[C@@H]1[C@H](O)C[C@@H]1[C@@]3(C)CC[C@H](O)C(C)(C)[C@@H]3[C@@H](O[C@@H]3O[C@H](CO)[C@@H](O)[C@H](O)[C@H]3O[C@@H]3O[C@@H](C)[C@H](O)[C@@H](O)[C@H]3O)C[C@]12C [ginsenoside Re]	effect of promoting tube formation	effect of promoting tube formation	–	–	–	–
CC(C)=CCC[C@](C)(O[C@@H]1O[C@H](CO[C@@H]2O[C@H](CO)[C@@H](O)[C@H](O)[C@H]2O)[C@@H](O)[C@H](O)[C@H]1O)[C@H]1CC[C@]2(C)[C@@H]1[C@H](O)C[C@@H]1[C@@]3(C)CC[C@H](O[C@@H]4O[C@H](CO)[C@@H](O)[C@H](O)[C@H]4O[C@@H]4O[C@H](CO)[C@@H](O)[C@H](O)[C@H]4O)C(C)(C)[C@@H]3CC[C@]12C [ginsenoside Rb1]	did not show any noticeable difference	effect of promoting tube formation	–	–	–	–
CC(C)=CCC[C@](C)(O[C@@H]1O[C@H](CO)[C@@H](O)[C@H](O)[C@H]1O)[C@H]1CC[C@]2(C)[C@@H]1[C@H](O)C[C@@H]1[C@@]3(C)CC[C@H](O[C@@H]4O[C@H](CO)[C@@H](O)[C@H](O)[C@H]4O[C@@H]4O[C@H](CO)[C@@H](O)[C@H](O)[C@H]4O)C(C)(C)[C@@H]3CC[C@]12C [ginsenoside Rd]	effect of promoting tube formation	effect of promoting tube formation	–	–	–	–
CC(C)=CCC[C@](C)(O[C@@H]1O[C@H](CO)[C@@H](O)[C@H](O)[C@H]1O)[C@H]1CC[C@]2(C)[C@@H]1[C@H](O)C[C@@H]1[C@@]3(C)CC[C@H](O)C(C)(C)[C@@H]3[C@@H](O[C@@H]3O[C@H](CO)[C@@H](O)[C@H](O)[C@H]3O)C[C@]12C [ginsenoside Rg1]	effect of promoting tube formation	effect of promoting tube formation	about 60%	–	–	–
ginsenoside Rb2	effect of inhibiting tube formation	effect of inhibiting tube formation	–	–	–	–
CC(C)=CCC[C@](C)(O[C@@H]1O[C@H](CO)[C@@H](O)[C@H](O)[C@H]1O)[C@H]1CC[C@]2(C)[C@@H]1[C@H](O)C[C@@H]1[C@@]3(C)CC[C@H](O)C(C)(C)[C@@H]3CC[C@]12C [ginsenoside CK]	effect of inhibiting tube formation	effect of inhibiting tube formation	–	–	–	–
CC(C)=CCCC(C)(OC1OC(CO)C(O)C(O)C1O)C1CCC2(C)C1C(O)CC1C3(C)CCC(O)C(C)(C)C3C(O)CC12C [ginsenoside F1, 20-O-β-D-glucopyranosyl-20(S)-protopanaxatriol]	effect of promoting tube formation at a higher level compared to that of the positive control	effect of promoting tube formation at a higher level compared to that of the positive control	about 20%	vascular leakage was inhibited by the pretreatment	further reduced compared to when the HUVECs were treated with ginsenoside F1 or Rh1 alone	effectively inhibit the vascular leakage symptoms induced by VEGF-A
